Data on 20 compounds can be found in publication PMC6534063, “Synthesis of modified 1,5-imino-D-xylitols as ligands for lysosomal β-glucocerebrosidase” (Monatshefte Fur Chemie, 2019).

Test [1] deals with human lysosomal β-glucocerebrosidase (GCase). Particulars: cited from earlier work; for IC50: compounds 10a-10b.
Test [2] addresses T1, human β-glucocerebrosidase (GCase) (Homo sapiens, UniProt P04062).
T1 construct: gift of Dr. Lorne Clarke, University of British Columbia
T1 sequence (P04062 40-536): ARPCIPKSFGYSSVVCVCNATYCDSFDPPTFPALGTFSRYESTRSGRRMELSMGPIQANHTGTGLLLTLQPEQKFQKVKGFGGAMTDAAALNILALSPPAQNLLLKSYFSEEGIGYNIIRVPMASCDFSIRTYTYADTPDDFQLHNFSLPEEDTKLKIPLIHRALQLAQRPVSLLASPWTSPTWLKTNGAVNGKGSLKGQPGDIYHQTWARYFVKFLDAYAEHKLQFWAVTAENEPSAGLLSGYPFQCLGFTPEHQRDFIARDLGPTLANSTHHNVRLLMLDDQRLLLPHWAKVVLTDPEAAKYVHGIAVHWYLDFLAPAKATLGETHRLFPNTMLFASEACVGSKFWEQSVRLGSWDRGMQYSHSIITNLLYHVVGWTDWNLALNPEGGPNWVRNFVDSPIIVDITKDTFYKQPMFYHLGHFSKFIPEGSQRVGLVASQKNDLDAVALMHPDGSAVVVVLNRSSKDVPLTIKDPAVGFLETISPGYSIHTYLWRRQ
As to the kind of experiment: Ki determination with human β-glucocerebrosidase (GCase). Type of test: biochemical. Particulars: 37 °C, citric acid/phosphate buffer with Triton X-100 and taurocholic acid pH 7.0, 4-nitrophenyl glycopyranoside substrate; read-out: Ki β-Glu, Gaucher (GCase). The source says: (§1) For the biological evaluation of the synthesized DIX derivatives 19, 23, 26, and 28, we have probed a series of standard glycoside hydrolases, including β-glucosidase from Agrobacterium sp. (ABG), β-galactosidase from E. coli, Fabrazyme (commercial recombinant human lysosomal α-galactosidase), α-glucosidase S. cerevisiae, and human β-glucocerebrosidase GCase, to investigate ligand activity as well as selectivity. […] This increase in selectivity might be explained by the fact that compounds 26 and 28 combine the advantages of both features, the ethyl group at position C-1 locking the structure in the ^1C4 conformation as well as the lipophilic substituents at the ring nitrogen. The former has been implied for favorable ligand properties and the fitting into the active site of GCase. The latter interacts with the lipophilic entrance to the active site of GCase mimicking the ceramide residue of the natural substrate glucosyl ceramide. Compounds 26 and 28 will serve as building blocks for further functionalisation as proposed.
(§2) Kinetic studies were performed at 37 °C in an appropriate buffer using a known concentration of enzyme (specific conditions depicted below). Ki determinations were performed using the corresponding 4-nitrophenyl α- or β-D-glycopyranoside as substrate. In a typical assay, the enzyme was incubated with different inhibitor concentrations for up to 5 min before initiating the reaction by the addition of substrate. The initial reaction rate was measured by monitoring the increase in absorbance at 400 nm for up to 10 min. Ki determinations were performed using at least two different substrate concentrations. For each inhibitor, a range of four-to-six inhibitor concentrations bracketing the Ki value ultimately determined was used for each substrate concentration. Dixon plots (1/v vs. [I]) were constructed to validate the use of the competitive inhibition model. The data were then fitted using non-linear regression analysis with Grafit 7.0.

Test [3] concerns the target T2, β-glucosidase/β-galactosidase from Agrobacterium sp. (ABG) (Agrobacterium sp., UniProt P12614).
T2 construct: made in house; host or cells: E. coli
T2 sequence (P12614 1-459): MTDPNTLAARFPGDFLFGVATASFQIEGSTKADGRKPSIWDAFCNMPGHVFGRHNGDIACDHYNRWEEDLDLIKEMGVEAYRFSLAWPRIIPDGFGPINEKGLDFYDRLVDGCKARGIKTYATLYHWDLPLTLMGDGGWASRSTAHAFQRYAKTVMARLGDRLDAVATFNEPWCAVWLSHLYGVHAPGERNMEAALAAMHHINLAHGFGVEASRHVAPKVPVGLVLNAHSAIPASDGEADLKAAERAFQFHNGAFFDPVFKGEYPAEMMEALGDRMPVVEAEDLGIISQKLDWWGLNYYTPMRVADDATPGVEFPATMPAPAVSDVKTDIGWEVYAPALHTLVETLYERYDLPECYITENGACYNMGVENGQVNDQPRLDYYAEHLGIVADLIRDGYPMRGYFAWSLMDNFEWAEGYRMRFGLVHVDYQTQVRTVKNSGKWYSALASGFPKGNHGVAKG
Put plainly: Ki determination with β-glucosidase from Agrobacterium sp. (ABG). Particulars: for Ki: 37 °C, 50 mM sodium phosphate buffer pH 7, 4-nitrophenyl glycopyranoside substrate, read-out: Ki β-Glu, ABG. Type of test: biochemical.
Text: as §1, §2

For test [4], the target named is T3, E.coli lac z β-galactosidase (Escherichia coli, UniProt P00722).
T3 construct: purchased Sigma-Aldrich
T3 sequence (P00722 2-1024 limits assumed): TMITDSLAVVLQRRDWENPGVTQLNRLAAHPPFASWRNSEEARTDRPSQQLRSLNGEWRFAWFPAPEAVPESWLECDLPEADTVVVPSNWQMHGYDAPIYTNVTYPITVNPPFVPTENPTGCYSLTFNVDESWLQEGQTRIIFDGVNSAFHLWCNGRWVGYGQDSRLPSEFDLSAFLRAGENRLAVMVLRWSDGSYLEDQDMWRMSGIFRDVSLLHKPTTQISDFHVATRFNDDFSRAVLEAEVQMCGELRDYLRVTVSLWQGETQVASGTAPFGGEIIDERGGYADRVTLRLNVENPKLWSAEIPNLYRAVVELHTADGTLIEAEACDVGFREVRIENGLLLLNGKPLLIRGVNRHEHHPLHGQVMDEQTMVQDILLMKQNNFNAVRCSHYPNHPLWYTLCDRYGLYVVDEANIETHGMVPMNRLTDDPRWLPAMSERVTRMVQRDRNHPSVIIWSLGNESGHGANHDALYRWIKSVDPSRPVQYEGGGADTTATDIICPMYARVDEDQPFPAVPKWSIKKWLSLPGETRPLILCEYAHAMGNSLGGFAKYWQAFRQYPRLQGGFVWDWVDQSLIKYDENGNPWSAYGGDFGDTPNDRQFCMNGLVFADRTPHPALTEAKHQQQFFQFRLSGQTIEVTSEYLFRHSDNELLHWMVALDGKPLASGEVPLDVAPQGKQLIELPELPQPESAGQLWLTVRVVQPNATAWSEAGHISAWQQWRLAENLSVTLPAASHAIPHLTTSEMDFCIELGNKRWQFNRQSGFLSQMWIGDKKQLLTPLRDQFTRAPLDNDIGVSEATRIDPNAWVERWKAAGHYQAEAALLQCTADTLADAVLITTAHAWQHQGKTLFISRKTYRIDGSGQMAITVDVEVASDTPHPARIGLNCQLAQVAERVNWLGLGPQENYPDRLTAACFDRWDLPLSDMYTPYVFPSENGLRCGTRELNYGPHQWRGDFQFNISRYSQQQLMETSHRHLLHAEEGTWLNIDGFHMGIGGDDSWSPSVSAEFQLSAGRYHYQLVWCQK
As to the kind of experiment: Ki determination with β-galactosidase from E. coli. Type of test: biochemical. The note with it: 37 °C, 50 mM sodium phosphate, 1.0 mM MgCl2 pH 7, 4-nitrophenyl glycopyranoside substrate; read-out: Ki β-Gal, E. coli.
Text: as §1, §2

The target in test [5] is T4, Fabrazyme (commercial recombinant human lysosomal α-galactosidase) (Homo sapiens, UniProt P06280).
T4 construct: purchased Fabrazyme, a commercial product; received as a gift from Dr Lorne Clarke, University of British Columbia
T4 sequence (P06280 32-429): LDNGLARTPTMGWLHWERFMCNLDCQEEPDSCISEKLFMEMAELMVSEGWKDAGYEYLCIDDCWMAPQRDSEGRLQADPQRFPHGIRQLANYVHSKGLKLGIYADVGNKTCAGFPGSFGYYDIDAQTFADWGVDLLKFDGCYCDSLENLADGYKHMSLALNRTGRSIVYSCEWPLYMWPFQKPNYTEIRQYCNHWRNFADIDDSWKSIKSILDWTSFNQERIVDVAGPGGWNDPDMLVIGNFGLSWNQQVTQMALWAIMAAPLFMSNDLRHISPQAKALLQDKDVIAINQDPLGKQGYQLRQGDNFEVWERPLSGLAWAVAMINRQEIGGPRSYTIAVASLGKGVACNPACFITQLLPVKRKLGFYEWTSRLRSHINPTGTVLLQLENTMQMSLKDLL
As to the kind of experiment: Ki determination with Fabrazyme. The note with it: 37 °C, citrate/phosphate buffer with Triton X-100 and taurocholic acid pH 5.5, 4-nitrophenyl glycopyranoside substrate; read-out: Ki α-Gal, Fabrazyme. Type of test: biochemical.
Text: as §1, §2

The target of test [6] is S. cerevisiae α-glucosidase. Put plainly: Ki determination with α-glucosidase S. cerevisiae. Type of test: biochemical. The note with it: 37 °C, 50 mM sodium phosphate buffer pH 7, PNP α-Glc substrate; read-out: Ki α-Glu, S. cer.
Text: as §1, §2

The target of test [7] is β-xylosidase from Thermoanaerobacterium saccharolyticum. Particulars: read-out: Ki (Xyl Therm. sac.), cited from earlier work.
Where [8] appears, read: C-1 alkyl modified DIX analogues 15.
The mark [9] stands for this setting: D-xylo 1-C-iminosugar glycosides 14.

Read-outs that look alike come from different tables or passages of the source.

Take `CCCCCC[C@H]1NC[C@@H](O)[C@H](O)[C@H]1O` [Compound 10a]: the IC50 (as a rule, the concentration at which inhibition is half-maximal) in test [1] was 0.019 µM. Consider `O=C(CC[C@H]1NC[C@@H](O)[C@H](O)[C@H]1O)NCCc1c[nH]cn1` [Compound 23, (1R)-1-C-[(Imidazo-4-yl)ethylaminocarbonylethyl]-1,5-dideoxy-1,5-imino-D-xylitol], for which the Ki (as a rule, the equilibrium dissociation constant of an inhibitor or competing ligand from its target) in test [2] is 1.1 µM; in test [3], 1.6 µM; in test [4], over 1000 µM; in test [5], over 1000 µM; in test [6] it was over 1000 µM. For `CC[C@H]1NC[C@@H](O)[C@H](O)[C@H]1O` [R = CH2CH3], the Ki in test [1] (setting [8]) is 2.3 µM. In the case of `COC(=O)[C@H](CCCCN1C[C@@H](O)[C@H](O)[C@@H](O)C1)NC(=O)[C@H](CCCCN1C[C@@H](O)[C@H](O)[C@@H](O)C1)NS(=O)(=O)c1cccc2c(N(C)C)cccc12` [8, R^1 = NHdansyl, R^2 =], the inhibition constant Ki in test [7] (N-modified DIX derivatives 8) is 21 µM. In the case of `N#C[C@H]1NC[C@@H](O)[C@H](O)[C@H]1O` [R = CN], the Ki in test [1] (setting [8]) was 34 µM. Consider `CCCCCCO[C@H]1CNC[C@@H](O)[C@@H]1O` [Compound 10b], for which the half-maximal inhibitory concentration (IC50) in test [1] was 0.009 µM. Regarding `COC(=O)[C@H](CCCCN1C[C@@H](O)[C@H](O)[C@@H](O)C1)N1C[C@@H](O)[C@H](O)[C@@H](O)C1` [8, R^1 = R^2 = OMe], the Ki in test [7] (N-modified DIX derivatives 8) is 25 µM. As to `CCCCCCCCC[C@H]1NC[C@@H](O)[C@H](O)[C@H]1O` [R = C9H19], the inhibition constant Ki in test [1] (1-C-alkyl imino-D-xylitols 9) is 0.0022 µM. As to `O[C@@H]1[C@@H](O)[C@@H](CCCCCOCC23CC4CC(CC(C4)C2)C3)NC[C@H]1O` [R^1 = C-C, n=2, R^2 =], the Ki in test [1] (setting [9]) is 0.001 µM. Regarding `COC(=O)[C@H](CCCCN1C[C@@H](O)[C@H](O)[C@@H](O)C1)NS(=O)(=O)c1cccc2c(N(C)C)cccc12` [8, R^1 = NHdansyl, R^2 = OMe], the Ki in test [7] (N-modified DIX derivatives 8) is 10 µM. With `CCOC(=O)CC[C@H]1NC[C@@H](O)[C@H](O)[C@H]1O` [Compound 19, (1R)-1-C-(Ethyloxycarbonylethyl)-1,5-dideoxy-1,5-imino-D-xylitol], the Ki was 5.1 µM in test [2]; 2.1 µM in test [3]; over 1000 µM in test [4]; over 1000 µM in test [5]; over 1000 µM in test [6]. As to `CCC[C@H]1NC[C@@H](O)[C@H](O)[C@H]1O` [R = (CH2)2CH3], the inhibition constant Ki in test [1] (setting [8]) is 1.3 µM. For the compound `COC(=O)CCN1C[C@@H](O)[C@H](O)[C@@H](O)C1` [Compound 7b], the Ki in test [7] (N-modified DIX derivatives 7) is 35 µM. As to `OCC[C@H]1NC[C@@H](O)[C@H](O)[C@H]1O` [R = (CH2)2OH], in test [1] (setting [8]), the Ki was 26.7 µM. As for `N#CCCN1C[C@@H](O)[C@H](O)[C@@H](O)C1` [Compound 7a], in test [7] (N-modified DIX derivatives 7), the Ki was 24 µM. In the case of `O[C@@H]1[C@@H](O)[C@@H](CC=CCCOCC23CC4CC(CC(C4)C2)C3)NC[C@H]1O` [R^1 = C=C, n=2, R^2 =], the Ki in test [1] (setting [9]) is 0.002 µM. For `CC[C@@H]1[C@H](O)[C@@H](O)[C@H](O)CN1CCCCCC(=O)NCCc1c[nH]cn1` [Compound 28, (1R)-1-C-Ethyl-N-[(imidazo-4-yl)ethylaminocarbonylpentyl]-1,5-dideoxy-1,5-imino-D-xylitol], the Ki in test [2] was 4.1 µM; in test [3], over 1000 µM; in test [4] it was over 1000 µM; in test [5], over 1000 µM; in test [6], over 1000 µM. Also, in test [3], the “inhibition of β-Glu ABG, in words” value is recorded as “No detectable inhibition”. On to `CCCCCCCCCCCC[C@H]1NC[C@@H](O)[C@H](O)[C@H]1O` [R = C12H25], for which the Ki in test [1] (1-C-alkyl imino-D-xylitols 9) is 0.031 µM. In the case of `CC(C)[C@H]1NC[C@@H](O)[C@H](O)[C@H]1O` [R = CH(CH3)2], the Ki in test [1] (setting [8]) was 12.4 µM. In the case of `CC[C@@H]1[C@H](O)[C@@H](O)[C@H](O)CN1CCCCCC(=O)OC` [Compound 26, (1R)-1-C-Ethyl-N-(methyloxycarbonylpentyl)-1,5-dideoxy-1,5-imino-D-xylitol], the Ki in test [2] was 57 µM; in test [3] it was over 1000 µM; in test [4], over 1000 µM; in test [5], over 1000 µM; in test [6], over 1000 µM. Also, in test [3], the “inhibition of β-Glu ABG, in words” value is on record as “No detectable inhibition”.
